Measured values from ChEMBL document CHEMBL3885881, “DrugMatrix”.

Species on record: Rattus norvegicus
Experiment: DrugMatrix - Regimen: Daily Repeat
Assay type: toxicity, organism-based, Sprague-Dawley
Design: regimen Daily Repeat, gender Male, age 6-8 weeks
Settings: in vivo, po, route oral GAVAGE, vehicle .5 % CMC; for BASOPHIL / EOSINOPHIL / ERYTHROCYTE COUNT / HEMATOCRIT / HEMOGLOBIN / LEUKOCYTE COUNT / LYMPHOCYTE / MEAN CORPUSCULAR HEMOGLOBIN / MEAN CORPUSCULAR HEMOGLOBIN CONCENTRATION / MEAN CORPUSCULAR VOLUME / MONOCYTE / NEUTROPHIL / PLATELET COUNT: tissue Blood; for ALANINE AMINOTRANSFERASE / ALKALINE PHOSPHATASE / ASPARTATE AMINOTRANSFERASE / BLOOD UREA NITROGEN / CHLORIDE / CHOLESTEROL / CREATINE PHOSPHOKINASE / CREATININE / GLUCOSE / PHOSPHORUS / POTASSIUM / SODIUM / TOTAL BILIRUBIN / TOTAL PROTEIN: tissue Plasma
[1] = 0 mg/kg, 72 h, dose level Control, time 3 day
[2] = 0 mg/kg, 120 h, dose level Control, time 5 day
[3] = 20 mg/kg, 72 h, dose level Low, time 3 day
[4] = 20 mg/kg, 120 h, dose level Low, time 5 day
[5] = 95 mg/kg, 72 h, dose level High, time 3 day
[6] = 95 mg/kg, 120 h, dose level High, time 5 day

`CN1CCN(C2=Nc3cc(Cl)ccc3Nc3ccccc32)CC1` [CLOZAPINE] was tested, and the BASOPHIL [1] was 0%, the EOSINOPHIL [1] was 0.33% and the “ERYTHROCYTE COUNT” value [1] was 6.2 x10E6/uL. The HEMATOCRIT [1] was 38.08%, the HEMOGLOBIN [1] was 14.92 G/DL and the “LEUKOCYTE COUNT” value [1] was 11.13 x10E3/uL. For the same compound, the LYMPHOCYTE [1] was 76%, the “MEAN CORPUSCULAR HEMOGLOBIN” value [1] was 24.1 pg and the “MEAN CORPUSCULAR HEMOGLOBIN CONCENTRATION” value [1] was 39.17 G/DL. The “MEAN CORPUSCULAR VOLUME” value [1] was 61.48 fL, the MONOCYTE [1] was 3.83% and the NEUTROPHIL [1] was 19.83%. The “PLATELET COUNT” value [1] was 1327.5 x10E3/uL, the “ALANINE AMINOTRANSFERASE” value [1] was 40.17 u/L and the “ALKALINE PHOSPHATASE” value [1] was 372 u/L. For the same compound, the “ASPARTATE AMINOTRANSFERASE” value [1] was 67.17 u/L, the “BLOOD UREA NITROGEN” value [1] was 18.83 mg/dL and the CHLORIDE [1] was 105.17 MEQ/L. For the same compound, the CHOLESTEROL [1] was 78.17 mg/dL, the “CREATINE PHOSPHOKINASE” value [1] was 149.17 u/L and the CREATININE [1] was 0.57 mg/dL. The GLUCOSE [1] was 185.17 mg/dL, the PHOSPHORUS [1] was 11.43 mg/dL and the POTASSIUM [1] was 6.78 MEQ/L. The SODIUM [1] was 152.83 MEQ/L, the “TOTAL BILIRUBIN” value [1] was 0.4 mg/dL and the “TOTAL PROTEIN” value [1] was 6.87 G/DL. For the same compound, the BASOPHIL [2] was 0%, the EOSINOPHIL [2] was 0% and the “ERYTHROCYTE COUNT” value [2] was 6.05 x10E6/uL. For the same compound, the HEMATOCRIT [2] was 36.55%, the HEMOGLOBIN [2] was 14.7 G/DL and the “LEUKOCYTE COUNT” value [2] was 11.8 x10E3/uL. For the same compound, the LYMPHOCYTE [2] was 86.83%, the “MEAN CORPUSCULAR HEMOGLOBIN” value [2] was 24.37 pg and the “MEAN CORPUSCULAR HEMOGLOBIN CONCENTRATION” value [2] was 40.32 G/DL. The “MEAN CORPUSCULAR VOLUME” value [2] was 60.47 fL, the MONOCYTE [2] was 0.83% and the NEUTROPHIL [2] was 12.33%. The “PLATELET COUNT” value [2] was 1177 x10E3/uL, the “ALANINE AMINOTRANSFERASE” value [2] was 41.83 u/L and the “ALKALINE PHOSPHATASE” value [2] was 377.5 u/L. For the same compound, the “ASPARTATE AMINOTRANSFERASE” value [2] was 60.83 u/L, the “BLOOD UREA NITROGEN” value [2] was 16 mg/dL and the CHLORIDE [2] was 105.67 MEQ/L. For the same compound, the CHOLESTEROL [2] was 67.83 mg/dL, the “CREATINE PHOSPHOKINASE” value [2] was 120.33 u/L and the CREATININE [2] was 0.6 mg/dL. The GLUCOSE [2] was 167.67 mg/dL, the PHOSPHORUS [2] was 10.03 mg/dL and the POTASSIUM [2] was 6.68 MEQ/L. For the same compound, the SODIUM [2] was 150.5 MEQ/L, the “TOTAL BILIRUBIN” value [2] was 0.57 mg/dL and the “TOTAL PROTEIN” value [2] was 6.25 G/DL. The BASOPHIL [3] was 0%, the EOSINOPHIL [3] was 0.5% and the “ERYTHROCYTE COUNT” value [3] was 5.3 x10E6/uL. For the same compound, the HEMATOCRIT [3] was 33.4%, the HEMOGLOBIN [3] was 12.8 G/DL and the “LEUKOCYTE COUNT” value [3] was 10.25 x10E3/uL. The LYMPHOCYTE [3] was 83.5%, the “MEAN CORPUSCULAR HEMOGLOBIN” value [3] was 24.2 pg and the “MEAN CORPUSCULAR HEMOGLOBIN CONCENTRATION” value [3] was 38.35 G/DL. For the same compound, the “MEAN CORPUSCULAR VOLUME” value [3] was 62.95 fL, the MONOCYTE [3] was 0% and the NEUTROPHIL [3] was 16%. For the same compound, the “PLATELET COUNT” value [3] was 1071.5 x10E3/uL, the “ALANINE AMINOTRANSFERASE” value [3] was 33.33 u/L and the “ALKALINE PHOSPHATASE” value [3] was 312 u/L. For the same compound, the “ASPARTATE AMINOTRANSFERASE” value [3] was 54 u/L, the “BLOOD UREA NITROGEN” value [3] was 13.33 mg/dL and the CHLORIDE [3] was 104.33 MEQ/L. For the same compound, the CHOLESTEROL [3] was 84.67 mg/dL, the “CREATINE PHOSPHOKINASE” value [3] was 145.33 u/L and the CREATININE [3] was 0.57 mg/dL. It also gave a GLUCOSE [3] of 148.67 mg/dL, a PHOSPHORUS [3] of 11.43 mg/dL and a POTASSIUM [3] of 6.5 MEQ/L. The SODIUM [3] was 149 MEQ/L, the “TOTAL BILIRUBIN” value [3] was 0.3 mg/dL and the “TOTAL PROTEIN” value [3] was 5.9 G/DL. The BASOPHIL [4] was 0%, the EOSINOPHIL [4] was 0% and the “ERYTHROCYTE COUNT” value [4] was 6.24 x10E6/uL. The HEMATOCRIT [4] was 37.73%, the HEMOGLOBIN [4] was 14.93 G/DL and the “LEUKOCYTE COUNT” value [4] was 15.97 x10E3/uL. For the same compound, the LYMPHOCYTE [4] was 93.67%, the “MEAN CORPUSCULAR HEMOGLOBIN” value [4] was 23.97 pg and the “MEAN CORPUSCULAR HEMOGLOBIN CONCENTRATION” value [4] was 39.57 G/DL. The “MEAN CORPUSCULAR VOLUME” value [4] was 60.57 fL, the MONOCYTE [4] was 1.33% and the NEUTROPHIL [4] was 5%. For the same compound, the “PLATELET COUNT” value [4] was 1152.67 x10E3/uL, the “ALANINE AMINOTRANSFERASE” value [4] was 36.67 u/L and the “ALKALINE PHOSPHATASE” value [4] was 370 u/L. The “ASPARTATE AMINOTRANSFERASE” value [4] was 55.67 u/L, the “BLOOD UREA NITROGEN” value [4] was 13 mg/dL and the CHLORIDE [4] was 106 MEQ/L. For the same compound, the CHOLESTEROL [4] was 72.33 mg/dL, the “CREATINE PHOSPHOKINASE” value [4] was 147.67 u/L and the CREATININE [4] was 0.57 mg/dL. The GLUCOSE [4] was 152.33 mg/dL, the PHOSPHORUS [4] was 11.4 mg/dL and the POTASSIUM [4] was 6.5 MEQ/L. For the same compound, the SODIUM [4] was 149 MEQ/L, the “TOTAL BILIRUBIN” value [4] was 0.3 mg/dL and the “TOTAL PROTEIN” value [4] was 5.87 G/DL. The BASOPHIL [5] was 0%, the EOSINOPHIL [5] was 0.33% and the “ERYTHROCYTE COUNT” value [5] was 6.22 x10E6/uL. For the same compound, the HEMATOCRIT [5] was 37.83%, the HEMOGLOBIN [5] was 14.53 G/DL and the “LEUKOCYTE COUNT” value [5] was 10.53 x10E3/uL. The LYMPHOCYTE [5] was 81.33%, the “MEAN CORPUSCULAR HEMOGLOBIN” value [5] was 23.4 pg and the “MEAN CORPUSCULAR HEMOGLOBIN CONCENTRATION” value [5] was 38.43 G/DL. For the same compound, the “MEAN CORPUSCULAR VOLUME” value [5] was 60.87 fL, the MONOCYTE [5] was 1% and the NEUTROPHIL [5] was 17.33%. The “PLATELET COUNT” value [5] was 1046 x10E3/uL, the “ALANINE AMINOTRANSFERASE” value [5] was 43.67 u/L and the “ALKALINE PHOSPHATASE” value [5] was 361.33 u/L. For the same compound, the “ASPARTATE AMINOTRANSFERASE” value [5] was 61.67 u/L, the “BLOOD UREA NITROGEN” value [5] was 16.33 mg/dL and the CHLORIDE [5] was 108 MEQ/L. For the same compound, the CHOLESTEROL [5] was 85.33 mg/dL, the “CREATINE PHOSPHOKINASE” value [5] was 131.33 u/L and the CREATININE [5] was 0.57 mg/dL. For the same compound, the GLUCOSE [5] was 153.33 mg/dL, the PHOSPHORUS [5] was 11.9 mg/dL and the POTASSIUM [5] was 7.33 MEQ/L. The SODIUM [5] was 154.33 MEQ/L, the “TOTAL BILIRUBIN” value [5] was 0.27 mg/dL and the “TOTAL PROTEIN” value [5] was 6.13 G/DL. For the same compound, the BASOPHIL [6] was 0%, the EOSINOPHIL [6] was 0.67% and the “ERYTHROCYTE COUNT” value [6] was 6.78 x10E6/uL. For the same compound, the HEMATOCRIT [6] was 41.33%, the HEMOGLOBIN [6] was 16.27 G/DL and the “LEUKOCYTE COUNT” value [6] was 12.7 x10E3/uL. The LYMPHOCYTE [6] was 89.67%, the “MEAN CORPUSCULAR HEMOGLOBIN” value [6] was 24.13 pg and the “MEAN CORPUSCULAR HEMOGLOBIN CONCENTRATION” value [6] was 39.43 G/DL. The “MEAN CORPUSCULAR VOLUME” value [6] was 61.1 fL, the MONOCYTE [6] was 0.33% and the NEUTROPHIL [6] was 9.33%. For the same compound, the “PLATELET COUNT” value [6] was 1299 x10E3/uL, the “ALANINE AMINOTRANSFERASE” value [6] was 60.33 u/L and the “ALKALINE PHOSPHATASE” value [6] was 306.67 u/L. The “ASPARTATE AMINOTRANSFERASE” value [6] was 59.67 u/L, the “BLOOD UREA NITROGEN” value [6] was 14.67 mg/dL and the CHLORIDE [6] was 107 MEQ/L. The CHOLESTEROL [6] was 96.67 mg/dL, the “CREATINE PHOSPHOKINASE” value [6] was 136 u/L and the CREATININE [6] was 0.5 mg/dL. For the same compound, the GLUCOSE [6] was 158 mg/dL, the PHOSPHORUS [6] was 11.83 mg/dL and the POTASSIUM [6] was 6.7 MEQ/L. For the same compound, the SODIUM [6] was 155.67 MEQ/L, the “TOTAL BILIRUBIN” value [6] was 0.2 mg/dL and the “TOTAL PROTEIN” value [6] was 6.6 G/DL.
